Measurements as given in US8450479B2, “3-substituted-4-oxo-3,4-dihydro-imidazo[5,1-d][1,2,3,5-tetrazine-8-carboxylic acid amides and their use” (Pharminox Limited, priority 2007, dated 2013).
Where “and” joins values, the source holds several entries; their conditions need not be identical. Equal entries are not always repeated. Where two headings read alike, the source gives them in different places.

Assays:
Type in all cases: cell-based
[1] = system: Colon DLD1; assay: MTT assay for 7-day toxicity assay
Outline: (§1)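 Cells seeded at 400 cells/well, attached overnight, then exposed to compound at 0.5–1000 μM final for 7 days at 37 °C, 5% CO2. Viability read by MTT, with a day-0 plate fixed at drug addition as reference.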

[2] = system: Colon HCT116 (MMR mutated); assay: MTT assay for 7-day toxicity assay
Outline: as §1

[3] = system: Normal Human Fetal Lung Fibroblast MRC-5; assay: MTT assay for 7-day toxicity assay
Outline: as §1

[4] = system: glioma MGMT− and MGMT+ cell lines; assay: MTT assay, glioma lines as a whole; details: glioma MGMT− and MGMT+ cell lines
Description: This assay was first described in Mosmann, T., 1983, “Rapid colorimetric assay for cellular growth and survival: Application to proliferation and cytotoxicity assays”, Journal of Immunological Methods, Vol. 65, Nos. 1-2, pp. 55-63.
Glioma cell lines, SNB19 and U373, both MGMT transfected (i.e., SNB19M and U373M) and vector controls (i.e., SNB19V and U373V); colorectal carcinoma cell lines, HCT116, HT29, and DLD1; melanoma cell line, SKMEL-28; breast cell line, MCF-7; and normal human fetal lung fibroblast cell line, MRC-5; were harvested at 60-80% confluence—during the logarithmic phase of growth.
Following harvesting, cells in suspension were gently syringed through a 23 gauge needle to obtain a near-single cell suspension. The desired cell seeding densities were used and added into 96-well plates in 180 μL culture medium if only one test compound was to be added, or 160 μL if two test compounds were to be added in combination, which were allowed to attach at 37° C. (5% CO2) overnight. For the 7 day assay, the cell seeding density for different cell lines was as follows: SNB19V, SNB19M: 650 cells/well; U373V, U373M: 650 cells/well; SNB19VR, U373VR: 650 cells/well; HCT116, DLD-1, SKMEL-28, MRC-5, MCF-7: 400 cells/well.
The two peripheral lanes were used as blank wells (cell free) and filled with 200 μL of medium in order to minimise medium evaporation from the plate. A separate time zero (T0) plate was set up alongside other plates. Serial dilutions in tissue culture medium of a 100 mM stock of test compound in DMSO were prepared immediately before each assay to ten times the final concentrations required, and then 20 μL was added to each well (200 μL total media per well) to achieve final concentrations of 0.5 μM, 1 μM, 5 μM, 10 μM, 50 μM, 100 μM, 500 μM, and 1000 μM. A minimum of four wells received the same test compound concentration. To control wells, including those in the T0 plate, 20 μL of medium was added. Previous assays had been carried out to verify that cell viability was not affected by the amount of DMSO added into the test compound-treated wells. A separate plate treated in the same way, but free of test compound, was used as a measure of cell viability at the time of drug addition (day 0).
After incubation at 37° C., 5% CO2 for 7 days (or immediately for the day 0 plate), cell viability was quantified using the MTT assay. 50 μL of sterile filtered MIT (3-(4,5-dimethylthiazol-2-yl)-2,5-diphenyltetrazolium bromide) (2 mg/mL in phosphate buffered saline) were added to each well (final concentration 0.4 mg/mL) and the plates were re-incubated for 4 hours to allow metabolic conversion of MTT by dehydrogenases in viable cells to insoluble formazan crystals. The medium and any unconverted MTT was aspirated, 150 μL of DMSO was added to each well, and the plates were shaken on a plate shaker (Stuart Scientific 503) to ensure complete formazan solubilisation.
The intensity of absorbance is directly proportional to cell viability. A linear relationship exists between cell number and the amount of formazan and so the mean absorbance determined for each well of the same concentration can be used as a quantitative measure of viable cells compared to the controls. A graph of absorbance against drug concentration was plotted and the test compound concentration (GI50) causing 50% inhibition of control cell growth (absorbance increase from day 0) was calculated by interpolation.

[5] = Homo sapiens, DLD-1, 168 h, Colon DLD1, 7-day MTT, single determinations, read-out: GI50
[6] = Colon HCT116 (MMR mutated), 7-day MTT, single determinations, read-out: GI50
[7] = Homo sapiens, HCT-116, 168 h, Colon HCT116 (MMR mutated), 7-day MTT, single determinations, read-out: GI50
[8] = Homo sapiens, MRC5, 168 h, Normal Human Fetal Lung Fibroblast MRC-5, 7-day MTT, single determinations, read-out: GI50
[9] = Normal Human Fetal Lung Fibroblast MRC-5, 7-day MTT, single determinations, read-out: GI50
[10] = Homo sapiens, DLD-1, Colon DLD1, read-out: GI50
[11] = Colon HCT116 (MMR mutated), read-out: GI50
[12] = Homo sapiens, HCT-116, Colon HCT116 (MMR mutated), read-out: GI50
[13] = Homo sapiens, MRC5, Normal Human Fetal Lung Fibroblast MRC-5, read-out: GI50
[14] = Normal Human Fetal Lung Fibroblast MRC-5, read-out: GI50

Structure (SMILES)	GI50 [1, 5]	GI50 [2, 6]	GI50 [2, 7]	GI50 [3, 8]	GI50 [3, 9]	activity in words [4]	GI50 [1, 10]	GI50 [2, 11]	GI50 [2, 12]	GI50 [3, 13]	GI50 [3, 14]	GI50 ([1]; Homo sapiens, DLD-1, Colon DLD1, average of Table 1, read-out: TMZ GI50 Average)	GI50 ([2]; Homo sapiens, HCT-116, Colon HCT116 (MMR mutated), average of Table 1, read-out: TMZ GI50 Average)	GI50 ([3]; Homo sapiens, MRC5, Normal Human Fetal Lung Fibroblast MRC-5, average of Table 1, read-out: TMZ GI50 Average)	GI50 ([1]; Colon DLD1, read-out: GI50)
C[C@H](c1ccccc1)n1nnc2c(C(N)=O)ncn2c1=O [BB-001, (R)-3-(-1-Phenylethyl)-8-carbamoylimidazotetrazin-4-one]	80.6 µM	194 µM	151 µM	174 µM											
C#CCn1nnc2c(C(N)=O)ncn2c1=O [EE-001, 3-Propargyl-8-carbamoylimidazotetrazin-4-one]	29.9 µM		59.9 µM	56.1 µM	66.6 µM	more potent than TMZ									
CCOC(=O)Cn1nnc2c(C(N)=O)ncn2c1=O [PX-016]	61.1 µM	66 µM	65.2 µM	109 µM	197 µM	surprising efficacy									
COCn1nnc2c(C(N)=O)ncn2c1=O [PX-020]						surprising efficacious	55.4 µM	47.4 µM and 52.4 µM and 56.1 µM and 29.5 µM	57.4 µM	61.6 µM	51.5 µM and 74.1 µM				
C[Si](C)(C)CCOCn1nnc2c(C(N)=O)ncn2c1=O [PX-021]						surprising efficacious	53.7 µM	39.8 µM and 36.6 µM and 40.1 µM	33.6 µM	48.6 µM	65.4 µM				
NC(=O)c1ncn2c(=O)n(CCl)nnc12 [PX-030]									22.3 µM	50.9 µM	67.2 µM				
Cn1nnc2c(C(N)=O)ncn2c1=O [TMZ, 3-Methyl-4-oxo-3,4-dihydro-imidazo[5,1-d][1,2,3,5]tetrazine-8-carboxylic acid amide, reference compound]	435 µM	570 µM and 594 µM	607 µM	441 µM	458 µM	demonstrably more active in the glioma lines which are MGMT−	435 µM		591 µM	449 µM		435 µM	591 µM	449 µM	
C[S+]([O-])Cn1nnc2c(C(N)=O)ncn2c1=O (stereo not shown) [UU-003, 3-Methanesulfinylmethyl-4-oxo-3,4-dihydro-imidazo[5,1-d][1,2,3,5]tetrazine-8-carboxylic acid amide]						surprising efficacy	8.2 µM	5.3 µM and 5 µM	6.7 µM	56.8 µM	55.2 µM and 52.1 µM				9.3 µM
